The values below come from publication PMC3725995 (Bioorganic & medicinal chemistry letters, 2010).

The target of series [1] is system LAT1 transporter of the blood–brain barrier (Rattus norvegicus, UniProt Q63016). Description: in situ rat brain perfusion: inhibition of L-[14C]-leucine uptake into rat brain. As to conditions: in vivo.
The test system of series [2] is system LAT1 transporter. As to conditions: cited from earlier work; for pKi: read-out: Ki for the system L transporter.
For series [3] the following is noted: cited from earlier work.
For series [4] the following is noted: cited from earlier work. This is another data set of the same source.
[5] abbreviates: read-out: Km for system LAT1 transporter.

pKi: −log10 of the molar value. Read-outs that look alike come from different tables or passages of the source.

Chain of system LAT1 transporter of the blood–brain barrier (Q63016 whole entry, the tested form may be a part): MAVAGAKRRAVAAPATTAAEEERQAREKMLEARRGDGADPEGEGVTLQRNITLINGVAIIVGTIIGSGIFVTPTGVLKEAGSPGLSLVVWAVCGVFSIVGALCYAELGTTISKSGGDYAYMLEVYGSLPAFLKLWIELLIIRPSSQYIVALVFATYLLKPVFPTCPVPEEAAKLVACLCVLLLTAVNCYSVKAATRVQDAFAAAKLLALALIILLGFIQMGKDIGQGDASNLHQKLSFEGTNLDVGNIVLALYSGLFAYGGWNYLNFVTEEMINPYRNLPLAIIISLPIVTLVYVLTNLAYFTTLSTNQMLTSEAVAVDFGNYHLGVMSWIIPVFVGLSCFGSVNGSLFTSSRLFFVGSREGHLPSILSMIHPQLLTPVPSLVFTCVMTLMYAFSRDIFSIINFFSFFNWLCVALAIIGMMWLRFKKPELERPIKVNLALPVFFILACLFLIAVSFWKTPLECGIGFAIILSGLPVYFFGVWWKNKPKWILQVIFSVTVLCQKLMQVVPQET
Chain of system LAT1 transporter of the blood–brain barrier (Q794F9 whole entry partner, the tested form may be a part): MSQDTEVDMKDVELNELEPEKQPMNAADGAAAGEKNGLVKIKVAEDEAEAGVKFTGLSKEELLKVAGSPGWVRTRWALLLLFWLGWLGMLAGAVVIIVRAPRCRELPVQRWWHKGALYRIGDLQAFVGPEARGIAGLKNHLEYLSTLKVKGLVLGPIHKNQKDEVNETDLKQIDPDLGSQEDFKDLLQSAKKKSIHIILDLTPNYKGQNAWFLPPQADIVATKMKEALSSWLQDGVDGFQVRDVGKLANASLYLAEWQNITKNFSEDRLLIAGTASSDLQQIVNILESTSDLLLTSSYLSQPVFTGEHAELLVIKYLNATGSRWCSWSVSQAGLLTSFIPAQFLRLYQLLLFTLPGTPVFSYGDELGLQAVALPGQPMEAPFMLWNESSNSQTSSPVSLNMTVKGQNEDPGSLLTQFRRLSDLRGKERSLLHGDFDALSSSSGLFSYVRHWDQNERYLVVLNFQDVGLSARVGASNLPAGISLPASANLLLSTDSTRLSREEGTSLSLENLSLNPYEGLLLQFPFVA

As to `NC1(C(=O)O)CC2CC1c1cc(N(CCCl)CCCl)ccc12` (mixture of isomers) [compound 7, (±)-2-endo-amino-bis(2-chloroethyl)-7′-aminobenzobicyclo[2.2.1]heptane-2-exo-carboxylic acid], the “times lower affinity for the system LAT1 transporter than 5c” value in series [1] stood at 25 times.

A word on the Km: it is the concentration of substrate that gives half-maximal velocity. `NC1(C(=O)O)CCc2ccccc2C1` (racemic) [compound 3, DL-2-amino-1,2,3,4,-tetrahydronaphthoic acid, reference compound]: in series [2] (setting [5]), the Km was 7.1 µM. A word on the pKi: it is the negative decadic logarithm of the Ki, by convention in mol/L. With `NC1(C(=O)O)CCc2c(cccc2N(CCCl)CCCl)C1` (centres unmarked) [5a], the “times lower affinity for the system LAT1 transporter than 5c” value in series [1] is 100 times. Further, the pKi in series [2] is around 4.60.

For the compound `NC1(C(=O)O)CCc2ccc(N(CCCl)CCCl)cc2C1` (centres unmarked) [5c], in series [3], the “in vitro antitumor activity compared to melphalan” value is “enhanced”. Moreover, in series [4], the “myelosuppressive activity compared to melphalan” value is “reduced”. Moreover, in series [2], the “Vmax of uptake into brain by blood–brain barrier system LAT1 transporter” value is 0.26 nmol/min/g and the pKi was around 6.70. Also, in series [2] (setting [5]), the Km was 0.19 µM.

On to `N[C@@H](Cc1ccc(N(CCCl)CCCl)cc1)C(=O)O` [compound 2, Melphalan, reference compound], for which, in series [2] (read-out: Km for system LAT1, estimated), the Km was 90 to 150 µM. Take `NC1(C(=O)O)CC2CCC1C2` (centres unmarked) [compound 4, reference compound]: the “affinity for the system LAT1 transporter” value in series [2] (in vivo) is recorded as “good affinity”.
